Measurements as given in US8969387B2, “Pyrrole compounds” (Takeda Pharmaceutical Company Limited, priority 2008, dated 2015).
Structures can show the parent of a compound that is named as a salt.

System: Caspase-3/7 activity in HepG2 cells
Assay: Caspase-3/7 activity test
Assay type: cell-based, human
Details: HepG2, 100 μM, one day; relative to Staurosporine maximum (100%) and no test reagent (0%)
Procedure: Human liver cancer-derived cell line HepG2 (ATCC No. HB-8065) was passaged using Dulbecco's Modified Eagle medium (DMEM; Invitrogen) containing 10% fetal bovine serum (FBS; TRACE SCIENTIFIC LTD.), 1 mmol/L sodium pyruvate (Invitrogen), 2 mmol/L L-glutamine (Invitrogen), 50 IU/mL penicillin (Invitrogen) and 50 μg/mL streptomycin (Invitrogen) at 5% CO2, 37° C. The test reagent was prepared with DMSO to 10 mM, and further diluted with DMEM medium containing 0.5% FBS, 1 mmol/L sodium pyruvate, 2 mmol/L L-glutamine, 50 IU/mL penicillin and 50 μg/mL streptomycin to a final concentration of DMSO of 0.1%. HepG2 (2×10^4 cells/well) was cultured on a 96 well white plate (Costar) with the test reagent at 5% CO2, 37° C. After culture for one day, the intracellular ATP content was measured using ATPLite™ (PerkinElmer Life Sciences). The results are shown in Table 4 (n23, average value±SD) as a relative value (%) to control (without addition of drug).
The Caspase-3/7 activity in the cells cultured for one day by a method similar to that in Experimental Example 3 was measured using Caspase-Glo 3/7 Assay (Promega). The results are shown in Table 4 (n≧3, average value SD) as relative activity (%) of each reagent based on the maximum value of Caspase-3/7 activity when exposed to Staurosporine (100%), and the activity without addition of a test reagent (0%).

| SMILES | Caspase-3/7 activity (%, 100 μM) |
| --- | --- |
| CNCc1cn(S(=O)(=O)c2cc(C)ccn2)c(-c2cccnc2F)c1F [Example 2, 1-{4-Fluoro-5-(2-fluoropyridin-3-yl)-1-[(4-methylpyridin-2-yl)sulfonyl]-1H-pyrrol-3-yl}-N-methylmethanamine hydrochloride] | −1.1% |
| CNCc1cn(S(=O)(=O)c2cncc(F)c2)c(-c2cccnc2F)c1F [Example 5, 1-{4-Fluoro-5-(2-fluoropyridin-3-yl)-1-[(5-fluoropyridin-3-yl)sulfonyl]-1H-pyrrol-3-yl}-N-methylmethanamine hydrochloride] | 0.3% |
| CNCc1cn(S(=O)(=O)c2ccc(C)nc2)c(-c2cccnc2F)c1F [Example 8, 1-{4-Fluoro-5-(2-fluoropyridin-3-yl)-1-[(6-methylpyridin-3-yl)sulfonyl]-1H-pyrrol-3-yl}-N-methylmethanamine 0.5 fumarate] | 2.4% |

More lines, now with the values ahead:

| Caspase-3/7 activity (%, 100 μM) | SMILES |
| --- | --- |
| −0.5% | CNCc1cn(S(=O)(=O)c2ccc(F)cn2)c(-c2cccnc2F)c1F [Example 3, 1-{4-Fluoro-5-(2-fluoropyridin-3-yl)-1-[(5-fluoropyridin-2-yl)sulfonyl]-1H-pyrrol-3-yl}-N-methylmethanamine hydrochloride] |
| −0.6% | CNCc1cn(S(=O)(=O)c2cc(OC)ccn2)c(-c2cccnc2F)c1F [Example 4, 1-{4-Fluoro-5-(2-fluoropyridin-3-yl)-1-[(4-methoxypyridin-2-yl)sulfonyl]-1H-pyrrol-3-yl}-N-methylmethanamine hydrochloride] |
| 0.9% | CNCc1cn(S(=O)(=O)c2ccc(OC)cn2)c(-c2cccnc2F)c1F [Example 10, 1-{4-Fluoro-5-(2-fluoropyridin-3-yl)-1-[(5-methoxypyridin-2-yl)sulfonyl]-1H-pyrrol-3-yl}-N-methylmethanamine hydrochloride] |
